Laboratory results published in ChEMBL document CHEMBL5230136, “A review: Biologically active 3,4-heterocycle-fused coumarins” (Eur J Med Chem, 2021).

Tests used:
LS180 = experiment: cells; conditions: Homo sapiens
Description: Cytotoxicity against human LS180 cells at 50 uM by MTT reduction assay

HeLa = experiment: cells; conditions: Homo sapiens
Description: Cytotoxicity against human HeLa cells at 50 uM by MTT reduction assay

MCF7 = experiment: Cytotoxicity against human MCF7 cells […] by MTT reduction assay; type: functional, cell-based
K562 = experiment: cells; conditions: Homo sapiens
Description: Cytotoxicity against human K562 cells at 50 uM by MTT reduction assay

Salmonella typhimurium = experiment: Antibacterial activity against Salmonella typhimurium DT104 assessed as zone of inhibition at 100 ug/ml; type: functional, Salmonella enterica subsp. enterica serovar Typhimurium; conditions: Salmonella enterica, read-out: IZ
Staphylococcus aureus [1] = experiment: Antibacterial activity against Staphylococcus aureus assessed as zone of inhibition at 100 ug/ml; type: functional; conditions: read-out: IZ
Escherichia coli [2] = experiment: Antibacterial activity against Escherichia coli assessed as zone of inhibition at 100 ug/ml; type: functional; conditions: read-out: IZ
Bacillus subtilis = experiment: Antibacterial activity against Bacillus subtilis assessed as zone of inhibition at 100 ug/ml; type: functional; conditions: read-out: IZ
Escherichia coli [3] = experiment: Antibacterial activity against Escherichia coli assessed as zone of inhibition at 20 mg/ml; type: functional; conditions: read-out: IZ
Staphylococcus aureus [4] = experiment: Antibacterial activity against Staphylococcus aureus assessed as zone of inhibition at 20 mg/ml; type: functional; conditions: read-out: IZ
Fusarium oxysporum = experiment: Antifungal activity against Fusarium oxysporum assessed as zone of inhibition at 20 mg/ml; type: functional; conditions: read-out: IZ
Serratia marcescens = experiment: Antibacterial activity against Serratia marcescens assessed as zone of inhibition at 20 mg/ml; type: functional; conditions: read-out: IZ
Scopulariopsis = experiment: Antifungal activity against Scopulariopsis assessed as zone of inhibition at 20 mg/ml; type: functional; conditions: read-out: IZ
Pseudomonas aeruginosa = experiment: Antibacterial activity against Pseudomonas aeruginosa assessed as zone of inhibition at 20 mg/ml; type: functional; conditions: read-out: IZ
Bacillus cereus = experiment: Antibacterial activity against Bacillus cereus assessed as zone of inhibition at 20 mg/ml; type: functional; conditions: read-out: IZ
Candida albicans = experiment: Antifungal activity against Candida albicans assessed as zone of inhibition at 20 mg/ml; type: functional; conditions: read-out: IZ
Geotrichum candidum = experiment: Antifungal activity against Geotrichum candidum assessed as zone of inhibition at 20 mg/ml; type: functional; conditions: read-out: IZ
Aspergillus flavus = experiment: Antifungal activity against Aspergillus flavus assessed as zone of inhibition at 20 mg/ml; type: functional; conditions: read-out: IZ
Micrococcus luteus = experiment: Antibacterial activity against Micrococcus luteus assessed as zone of inhibition at 20 mg/ml; type: functional; conditions: read-out: IZ
Trichophyton rubrum = experiment: Antifungal activity against Trichophyton rubrum assessed as zone of inhibition at 20 mg/ml; type: functional; conditions: read-out: IZ

IC50 (LS180) [µM] | IC50 (HeLa) [µM] | IC50 (K562) [µM] | SMILES | IC50 (MCF7) [µM] | zone of inhibition at 100 µg/mL (Salmonella typhimurium) [mm] | zone of inhibition at 100 µg/mL (Staphylococcus aureus [1]) [mm] | zone of inhibition at 100 µg/mL (Escherichia coli [2]) [mm] | zone of inhibition at 100 µg/mL (Bacillus subtilis) [mm] | other results
> 100 | 88.2 | 43.8 | O=C1CCCc2nc3c(c(-c4ccc([N+](=O)[O-])cc4)c21)c(=O)oc1ccccc13 | > 100 |  |  |  |  | 
 |  |  | Cc1ccc2c(c1)oc(=O)c1c(-c3cn(-c4ccccc4)nc3-c3ccccc3)cc(-c3ccc(Cl)cc3Cl)nc12 |  | 19 | 16 | 21 | 19 | 
 |  |  | Cc1ccc2c(c1)oc(=O)c1c(-c3cn(-c4ccccc4)nc3-c3ccccc3)cc(-c3c(O)c(Cl)cc(Br)c3O)nc12 |  | 12 | 18 | 19 | 16 | 
 |  |  | Cc1ccc2c(c1)oc(=O)c1c(-c3cn(-c4ccccc4)nc3-c3ccccc3)cc(-c3c(O)cc(C)c(Cl)c3Cl)nc12 |  | 10 | 7 | 8 | 14 | 
> 100 | > 100 | > 100 | COc1ccccc1-c1c2c(nc3c1c(=O)oc1ccccc13)CCCC2=O | > 100 |  |  |  |  | 
> 100 | 98.5 | > 100 | COc1ccc(-c2c3c(nc4c2c(=O)oc2ccccc24)CCCC3=O)cc1 | 62 |  |  |  |  | 
 |  |  | Cc1ccc2c(c1)oc(=O)c1c(-c3cn(-c4ccccc4)nc3-c3ccccc3)cc(-c3c(O)c(Cl)c(O)c(Cl)c3Cl)nc12 |  | 20 | 18 | 22 | 22 | zone of inhibition at 20000 µg/mL (Escherichia coli [3]): 22 mm; zone of inhibition at 20000 µg/mL (Staphylococcus aureus [4]): 22 mm
> 100 | > 100 | > 100 | COc1cccc(-c2c3c(nc4c2c(=O)oc2ccccc24)CCCC3=O)c1 | > 100 |  |  |  |  | 
 |  |  | Cc1ccc2c(c1)oc(=O)c1c(-c3cn(-c4ccccc4)nc3-c3ccccc3)cc(-c3c(O)c(I)cc(Cl)c3Cl)nc12 |  | 14 | 16 | 18 | 8 | 
 |  |  | CCOC(=O)c1sc2c(c1NC(=O)CNc1ccc(S(=O)(=O)NN=N)cc1)c(=O)oc1ccccc12 |  |  |  |  |  | zone of inhibition at 20000 µg/mL (Fusarium oxysporum): 0 mm; zone of inhibition at 20000 µg/mL (Serratia marcescens): 0 mm; zone of inhibition at 20000 µg/mL (Scopulariopsis): 0 mm; zone of inhibition at 20000 µg/mL (Escherichia coli [3]): 9 mm; zone of inhibition at 20000 µg/mL (Pseudomonas aeruginosa): 9 mm; zone of inhibition at 20000 µg/mL (Bacillus cereus): 0 mm; zone of inhibition at 20000 µg/mL (Candida albicans): 13 mm; zone of inhibition at 20000 µg/mL (Geotrichum candidum): 0 mm; zone of inhibition at 20000 µg/mL (Aspergillus flavus): 0 mm; zone of inhibition at 20000 µg/mL (Micrococcus luteus): 0 mm; zone of inhibition at 20000 µg/mL (Trichophyton rubrum): 0 mm; zone of inhibition at 20000 µg/mL (Staphylococcus aureus [4]): 10 mm
 |  |  | Cc1ccc2c(c1)oc(=O)c1c(-c3cn(-c4ccccc4)nc3-c3ccccc3)cc(-c3c(O)cc(O)cc3Cl)nc12 |  | 12 | 10 | 19 | 14 | 
 |  |  | Cc1ccc2c(c1)oc(=O)c1c(-c3cn(-c4ccccc4)nc3-c3ccccc3)cc(-c3c(O)ccc(Cl)c3Cl)nc12 |  | 10 | 8 | 12 | 10 | 
> 100 | > 100 | > 100 | Cc1ccccc1-c1c2c(nc3c1c(=O)oc1ccccc13)CCCC2=O | > 100 |  |  |  |  | 
 |  |  | O=C(N[C@H](CO)[C@H](O)c1ccc([N+](=O)[O-])cc1)C(Cl)Cl [CHLORAMPHENICOL] |  |  |  |  |  | zone of inhibition at 20000 µg/mL (Fusarium oxysporum): 28 mm; zone of inhibition at 20000 µg/mL (Serratia marcescens): 20 mm; zone of inhibition at 20000 µg/mL (Scopulariopsis): 20 mm; zone of inhibition at 20000 µg/mL (Escherichia coli [3]): 18 mm; zone of inhibition at 20000 µg/mL (Pseudomonas aeruginosa): 18 mm; zone of inhibition at 20000 µg/mL (Bacillus cereus): 22 mm; zone of inhibition at 20000 µg/mL (Candida albicans): 20 mm; zone of inhibition at 20000 µg/mL (Geotrichum candidum): 24 mm; zone of inhibition at 20000 µg/mL (Aspergillus flavus): 44 mm; zone of inhibition at 20000 µg/mL (Micrococcus luteus): 20 mm; zone of inhibition at 20000 µg/mL (Trichophyton rubrum): 36 mm; zone of inhibition at 20000 µg/mL (Staphylococcus aureus [4]): 18 mm
 |  |  | Cc1ccc2c(c1)oc(=O)c1c(-c3cn(-c4ccccc4)nc3-c3ccccc3)cc(-c3c(O)c(C)cc(I)c3O)nc12 |  | 12 | 15 | 18 | 18 | 
> 100 | > 100 | 57.4 | Cc1cccc(-c2c3c(nc4c2c(=O)oc2ccccc24)CCCC3=O)c1 |  |  |  |  |  | 
 |  |  | CC1(C)S[C@@H]2[C@H](NC(=O)Cc3ccccc3)C(=O)N2[C@H]1C(=O)O [PENICILLIN G] |  | 22 | 24 | 22 | 24 | 
 |  |  | Cc1ccc2c(c1)oc(=O)c1c(-c3cn(-c4ccccc4)nc3-c3ccccc3)cc(-c3c(O)c(Br)cc(Cl)c3Cl)nc12 |  | 22 | 21 | 19 | 20 | 
 |  |  | CCOC(=O)c1sc2c(c1NC(=O)CNc1ccccc1)c(=O)oc1ccccc12 |  |  |  |  |  | zone of inhibition at 20000 µg/mL (Fusarium oxysporum): 0 mm; zone of inhibition at 20000 µg/mL (Serratia marcescens): 0 mm; zone of inhibition at 20000 µg/mL (Scopulariopsis): 10 mm; zone of inhibition at 20000 µg/mL (Escherichia coli [3]): 0 mm; zone of inhibition at 20000 µg/mL (Pseudomonas aeruginosa): 0 mm; zone of inhibition at 20000 µg/mL (Bacillus cereus): 0 mm; zone of inhibition at 20000 µg/mL (Candida albicans): 13 mm; zone of inhibition at 20000 µg/mL (Geotrichum candidum): 11 mm; zone of inhibition at 20000 µg/mL (Aspergillus flavus): 12 mm; zone of inhibition at 20000 µg/mL (Micrococcus luteus): 0 mm; zone of inhibition at 20000 µg/mL (Trichophyton rubrum): 10 mm; zone of inhibition at 20000 µg/mL (Staphylococcus aureus [4]): 0 mm
> 100 | 37.7 | 37.5 | O=C1CCCc2nc3c(c(-c4ccc(Cl)cc4)c21)c(=O)oc1ccccc13 | 41.8 |  |  |  |  | 
> 100 | 47.3 | 47.5 | O=C1CCCc2nc3c(c(-c4ccc(Br)cc4)c21)c(=O)oc1ccccc13 | 46.2 |  |  |  |  | 
 |  |  | Cc1ccc2c(c1)oc(=O)c1c(-c3cn(-c4ccccc4)nc3-c3ccccc3)cc(-c3c(O)c(I)c(C)c(Cl)c3Cl)nc12 |  | 12 | 15 | 9 | 12 | 
> 100 | > 100 | > 100 | O=C1CCCc2nc3c(c(-c4ccccc4Cl)c21)c(=O)oc1ccccc13 | > 100 |  |  |  |  | 
 |  |  | Cc1ccc2c(c1)oc(=O)c1c(-c3cn(-c4ccccc4)nc3-c3ccccc3)cc(-c3c(O)ccc(Cl)c3O)nc12 |  | 20 | 19 | 21 | 18 | 
> 100 | 83.6 | 38.8 | O=C1CCCc2nc3c(c(-c4cccc(Br)c4)c21)c(=O)oc1ccccc13 | 31.4 |  |  |  |  | 
 |  |  | Cc1ccc2c(c1)oc(=O)c1c(-c3cn(-c4ccccc4)nc3-c3ccccc3)cc(-c3c(O)c(Cl)cc(I)c3O)nc12 |  | 16 | 19 | 20 | 22 | 
> 100 | 43.6 | 56.2 | Cc1ccc(-c2c3c(nc4c2c(=O)oc2ccccc24)CCCC3=O)cc1 | 66.7 |  |  |  |  | 
> 100 | > 100 | 50.7 | O=C1CCCc2nc3c(c(-c4cccc(Cl)c4)c21)c(=O)oc1ccccc13 | 71.7 |  |  |  |  | 
